Results published in ChEMBL document CHEMBL1201861, “Genomics of Drug Sensitity in Cancer screening data, Wellcome Trust Sanger Institute”.

How the values were obtained:
Experiment in all cases: cells
Type in all cases: functional, cell-based
C-33-A = conditions: Homo sapiens;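 note: cell viability assay measuring growth inhibition of C-33-A cells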
Description: SANGER: Inhibition of human C-33-A cell growth in a cell viability assay.

OVCAR-5 = conditions: Homo sapiens;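 note: growth inhibition of human OVCAR-5 cells, read out with a cell viability assay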
Description: SANGER: Inhibition of human OVCAR-5 cell growth in a cell viability assay.

J82 = conditions: Homo sapiens;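 note: growth inhibition of J82 cells, read out with a cell viability assay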
Description: SANGER: Inhibition of human J82 cell growth in a cell viability assay.

SK-MM-2 = conditions: Homo sapiens;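 note: growth inhibition of human SK-MM-2 cells, read out with a cell viability assay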
Description: SANGER: Inhibition of human SK-MM-2 cell growth in a cell viability assay.

NCI-H1437 = conditions: Homo sapiens;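 note: growth inhibition of human NCI-H1437 cells, read out by a cell viability assay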
Description: SANGER: Inhibition of human NCI-H1437 cell growth in a cell viability assay.

PC-14 = conditions: Homo sapiens;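 note: cell viability assay measuring inhibition of PC-14 cell growth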
Description: SANGER: Inhibition of human PC-14 cell growth in a cell viability assay.

U-251 = conditions: Homo sapiens;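 note: growth inhibition of human U-251 cells, read out through a cell viability assay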
Description: SANGER: Inhibition of human U251 cell growth in a cell viability assay.

UACC-812 = conditions: Homo sapiens
Description: SANGER: Inhibition of human UACC-812 cell growth in a cell viability assay.

MDA-MB-157 = conditions: Homo sapiens
Description: SANGER: Inhibition of human MDA-MB-157 cell growth in a cell viability assay.

KMS-12-PE = conditions: Homo sapiens;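 note: growth inhibition of human KMS-12-PE cells, measured with a cell viability assay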
Description: SANGER: Inhibition of human KMS-12-PE cell growth in a cell viability assay.

CAL-39 = conditions: Homo sapiens;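 note: cell viability assay measuring growth inhibition of CAL-39 cells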
Description: SANGER: Inhibition of human CAL-39 cell growth in a cell viability assay.

EHEB = conditions: Homo sapiens;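 note: growth inhibition of human EHEB cells, read out with a cell viability assay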
Description: SANGER: Inhibition of human EHEB cell growth in a cell viability assay.

HCC1937 = conditions: Homo sapiens;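 note: growth inhibition measured with a cell viability read-out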
Description: SANGER: Inhibition of human HCC1937 cell growth in a cell viability assay.

NCI-H345 = conditions: Homo sapiens;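 note: growth inhibition of NCI-H345 cells measured with a cell viability assay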
Description: SANGER: Inhibition of human NCI-H345 cell growth in a cell viability assay.

NCI-N87 = conditions: Homo sapiens;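 note: growth inhibition of human NCI-N87 cells, read out with a cell viability assay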
Description: SANGER: Inhibition of human NCI-N87 cell growth in a cell viability assay.

NCI-H522 = conditions: Homo sapiens;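 note: cell viability assay measuring growth inhibition of human NCI-H522 cells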
Description: SANGER: Inhibition of human NCI-H522 cell growth in a cell viability assay.

HSC-3 = conditions: Homo sapiens
Description: SANGER: Inhibition of human HSC-3 cell growth in a cell viability assay.

A-427 = conditions: Homo sapiens;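 note: growth inhibition of human A-427 cells, read out by a cell viability assay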
Description: SANGER: Inhibition of human A427 cell growth in a cell viability assay.

HSC-2 = conditions: Homo sapiens;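 note: growth inhibition of human HSC-2 cells, read out by a cell viability assay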
Description: SANGER: Inhibition of human HSC-2 cell growth in a cell viability assay.

SN12C = conditions: Homo sapiens;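 note: growth inhibition of human SN12C cells, measured by a cell viability assay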
Description: SANGER: Inhibition of human SN12C cell growth in a cell viability assay.

NCI-H1623 = conditions: Homo sapiens;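 note: cell viability assay used as the read-out for growth inhibition of NCI-H1623 cells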
Description: SANGER: Inhibition of human NCI-H1623 cell growth in a cell viability assay.

CMK = conditions: Homo sapiens;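 note: growth inhibition of CMK cells, read out as cell viability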
Description: SANGER: Inhibition of human CMK cell growth in a cell viability assay.

T47D = conditions: Homo sapiens;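 note: growth inhibition of human T47D cells, measured with a cell viability assay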
Description: SANGER: Inhibition of human T47D cell growth in a cell viability assay.

SNU-C1 = conditions: Homo sapiens;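 note: growth inhibition of SNU-C1 human cells, read out by a cell viability assay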
Description: SANGER: Inhibition of human SNU-C1 cell growth in a cell viability assay.

A2780 = conditions: Homo sapiens;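 note: growth inhibition of A2780 cells, read out with a cell viability assay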
Description: SANGER: Inhibition of human A2780 cell growth in a cell viability assay.

NCI-H727 = conditions: Homo sapiens;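 note: growth inhibition of human NCI-H727 cells, read out with a cell viability assay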
Description: SANGER: Inhibition of human NCI-H727 cell growth in a cell viability assay.

NCI-H1563 = conditions: Homo sapiens;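 note: growth inhibition of human NCI-H1563 cells, read out with a cell viability assay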
Description: SANGER: Inhibition of human NCI-H1563 cell growth in a cell viability assay.

COLO-679 = conditions: Homo sapiens
Description: SANGER: Inhibition of human COLO-679 cell growth in a cell viability assay.

HCC1395 = conditions: Homo sapiens;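 note: growth inhibition of HCC1395 cells, read out by a cell viability assay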
Description: SANGER: Inhibition of human HCC1395 cell growth in a cell viability assay.

NB12 = conditions: Homo sapiens;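 note: growth inhibition of human NB12 cells, read out by a cell viability assay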
Description: SANGER: Inhibition of human NB12 cell growth in a cell viability assay.

Daoy = conditions: Homo sapiens;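 note: daoy cell growth inhibition, read out as cell viability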
Description: SANGER: Inhibition of human Daoy cell growth in a cell viability assay.

BXPC-3 = conditions: Homo sapiens;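 note: growth inhibition of human BxPC-3 cells, read out by a cell viability assay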
Description: SANGER: Inhibition of human BxPC-3 cell growth in a cell viability assay.

OVCAR-3 = conditions: Homo sapiens;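 note: growth inhibition of human OVCAR-3 cells, determined by a cell viability assay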
Description: SANGER: Inhibition of human OVCAR-3 cell growth in a cell viability assay.

SIMA = conditions: Homo sapiens;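 note: growth inhibition of SIMA cells, measured with a cell viability readout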
Description: SANGER: Inhibition of human SIMA cell growth in a cell viability assay.

BHY = conditions: Homo sapiens;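 note: cell growth inhibition read out by a viability assay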
Description: SANGER: Inhibition of human BHY cell growth in a cell viability assay.

G-361 = conditions: Homo sapiens
HT-1080 = conditions: Homo sapiens
Description: SANGER: Inhibition of human HT-1080 cell growth in a cell viability assay.

LoVo = conditions: Homo sapiens;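 note: growth inhibition of human LoVo cells, read out with a cell viability assay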
Description: SANGER: Inhibition of human LoVo cell growth in a cell viability assay.

HCC1599 = conditions: Homo sapiens;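 note: growth inhibition of HCC1599 cells, read out in a cell viability assay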
Description: SANGER: Inhibition of human HCC1599 cell growth in a cell viability assay.

SR = conditions: Homo sapiens
Description: SANGER: Inhibition of human SR cell growth in a cell viability assay.

CWR22R = conditions: Homo sapiens, 22Rv1;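 note: growth inhibition of 22Rv1 cells, read out with a cell viability assay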
Description: SANGER: Inhibition of human 22RV1 cell growth in a cell viability assay.

MDA-MB-231 = conditions: Homo sapiens
Description: SANGER: Inhibition of human MDA-MB-231 cell growth in a cell viability assay.

SW1990 = conditions: Homo sapiens;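 note: cell growth inhibition determined with a viability assay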
Description: SANGER: Inhibition of human SW1990 cell growth in a cell viability assay.

NCI-H441 = conditions: Homo sapiens;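 note: growth inhibition of NCI-H441 cells, read out with a cell viability assay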
Description: SANGER: Inhibition of human NCI-H441 cell growth in a cell viability assay.

NCI-H1573 = conditions: Homo sapiens;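 note: growth inhibition of NCI-H1573 cells, read out with a cell viability assay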
Description: SANGER: Inhibition of human NCI-H1573 cell growth in a cell viability assay.

NCI-H1694 = conditions: Homo sapiens;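 note: cell viability assay measuring inhibition of growth in human NCI-H1694 cells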
Description: SANGER: Inhibition of human NCI-H1694 cell growth in a cell viability assay.

NUGC-3 = conditions: Homo sapiens;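 note: growth inhibition of human NUGC-3 cells, read out with a cell viability assay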
Description: SANGER: Inhibition of human NUGC-3 cell growth in a cell viability assay.

LOUCY = conditions: Homo sapiens;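 note: growth inhibition of human LOUCY cells, read out with a cell viability assay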
Description: SANGER: Inhibition of human LOUCY cell growth in a cell viability assay.

MeWo = conditions: Homo sapiens;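 note: growth inhibition of MeWo cells, determined by a cell viability readout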
Description: SANGER: Inhibition of human Mewo cell growth in a cell viability assay.

LC4-1 = conditions: Homo sapiens;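 note: growth inhibition of LC4-1 cells, read out with a cell viability assay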
Description: SANGER: Inhibition of human LC4-1 cell growth in a cell viability assay.

OAW-42 = conditions: Homo sapiens;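 note: growth inhibition of OAW-42 cells, read out with a cell viability assay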
Description: SANGER: Inhibition of human OAW-42 cell growth in a cell viability assay.

EVSA-T = conditions: Homo sapiens;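 note: growth inhibition of EVSA-T cells, read out with a cell viability assay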
Description: SANGER: Inhibition of human EVSA-T cell growth in a cell viability assay.

RL = conditions: Homo sapiens
Description: SANGER: Inhibition of human RL cell growth in a cell viability assay.

NCI-H889 = conditions: Homo sapiens;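 note: cell growth inhibition of the cell line, read out with a viability assay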
Description: SANGER: Inhibition of human NCI-H889 cell growth in a cell viability assay.

LCLC-103H cell line = conditions: Homo sapiens
Description: SANGER: Inhibition of human LCLC-103H cell growth in a cell viability assay.

LP-1 = conditions: Homo sapiens;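 note: growth inhibition of human LP-1 cells, with the read-out taken from a cell viability assay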
Description: SANGER: Inhibition of human LP-1 cell growth in a cell viability assay.

Ca-Ski = conditions: Homo sapiens;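 note: cell viability assay measuring inhibition of Ca-Ski cell growth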
Description: SANGER: Inhibition of human Ca-Ski cell growth in a cell viability assay.

AU565 = conditions: Homo sapiens;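 note: cell viability assay measuring growth inhibition of human AU565 cells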
Description: SANGER: Inhibition of human AU565 cell growth in a cell viability assay.

DK-MG = conditions: Homo sapiens;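 note: growth inhibition of DK-MG cells, read out with a cell viability assay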
Description: SANGER: Inhibition of human DK-MG cell growth in a cell viability assay.

A-375 = conditions: Homo sapiens;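 note: growth inhibition of A375 cells, read out with a cell viability assay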
Description: SANGER: Inhibition of human A375 cell growth in a cell viability assay.

Raji = conditions: Homo sapiens;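 note: cell viability assay measuring inhibition of Raji cell growth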
Description: SANGER: Inhibition of human Raji cell growth in a cell viability assay.

CHL-1 = conditions: Homo sapiens
Description: SANGER: Inhibition of human CHL-1 cell growth in a cell viability assay.

SK-MES-1 = conditions: Homo sapiens
Description: SANGER: Inhibition of human SK-MES-1 cell growth in a cell viability assay.

D-542MG = conditions: Homo sapiens
Description: SANGER: Inhibition of human D-542MG cell growth in a cell viability assay.

`CO[C@@]12[C@H](COC(N)=O)C3=C(C(=O)C(C)=C(N)C3=O)N1C[C@@H]1N[C@@H]12` [MITOMYCIN] showed an IC50 (C-33-A) of 0.487 µM, an IC50 (OVCAR-5) of 0.487 µM and an IC50 (J82) of under 0.0625 µM. It also gave an IC50 (SK-MM-2) of 2.72 µM, an IC50 (NCI-H1437) of 0.126 µM and an IC50 (PC-14) of 0.491 µM. It also gave an IC50 (U-251) of 0.129 µM, an IC50 (UACC-812) of over 16 µM and an IC50 (MDA-MB-157) of 2.19 µM. For the same compound, the IC50 (KMS-12-PE) was 3.83 µM, the IC50 (CAL-39) was 0.0465 µM and the IC50 (EHEB) was 0.672 µM. It also gave an IC50 (HCC1937) of 0.594 µM, an IC50 (NCI-H345) of 4.73 µM and an IC50 (NCI-N87) of 0.438 µM. The IC50 (NCI-H522) was 0.169 µM, the IC50 (HSC-3) was 0.0755 µM and the IC50 (A-427) was 0.301 µM. It also gave an IC50 (HSC-2) of 0.0834 µM, an IC50 (SN12C) of 3.46 µM and an IC50 (NCI-H1623) of 1.01 µM. It also gave an IC50 (CMK) of under 0.0625 µM, an IC50 (T47D) of 6.37 µM and an IC50 (SNU-C1) of 1.91 µM. It also gave an IC50 (A2780) of 0.107 µM, an IC50 (NCI-H727) of 0.212 µM and an IC50 (NCI-H1563) of 1.43 µM. The IC50 (COLO-679) was 0.0902 µM, the IC50 (HCC1395) was 1.06 µM and the IC50 (NB12) was 1.2 µM. It also gave an IC50 (Daoy) of 0.088 µM, an IC50 (BXPC-3) of 0.775 µM and an IC50 (OVCAR-3) of 1.13 µM. The IC50 (SIMA) was 0.241 µM, the IC50 (BHY) was 0.0753 µM and the IC50 (G-361) was 0.124 µM. It also gave an IC50 (HT-1080) of 0.354 µM, an IC50 (LoVo) of 0.431 µM and an IC50 (HCC1599) of 0.12 µM. For the same compound, the IC50 (SR) was under 0.0625 µM, the IC50 (CWR22R) was 0.144 µM and the IC50 (MDA-MB-231) was 3.24 µM. For the same compound, the IC50 (SW1990) was 0.637 µM, the IC50 (NCI-H441) was 0.0176 µM and the IC50 (NCI-H1573) was 1.46 µM. It also gave an IC50 (NCI-H1694) of 0.415 µM, an IC50 (NUGC-3) of 0.0169 µM and an IC50 (LOUCY) of 0.0262 µM. For the same compound, the IC50 (MeWo) was 9.55 µM, the IC50 (LC4-1) was 1.24 µM and the IC50 (OAW-42) was 0.0894 µM. It also gave an IC50 (EVSA-T) of 1.57 µM, an IC50 (RL) of 5.44 µM and an IC50 (NCI-H889) of 2.48 µM. The IC50 (LCLC-103H cell line) was 0.461 µM, the IC50 (LP-1) was 4.56 µM and the IC50 (Ca-Ski) was 0.0538 µM. It also gave an IC50 (AU565) of 0.501 µM, an IC50 (DK-MG) of over 16 µM and an IC50 (A-375) of 0.139 µM. For the same compound, the IC50 (Raji) was 1.22 µM, the IC50 (CHL-1) was 0.225 µM and the IC50 (SK-MES-1) was 0.0511 µM. For the same compound, the IC50 (D-542MG) was 0.602 µM.

`C/C=C(/C)C(=O)O[C@H]1C(C)=C2[C@H]([C@@H]1OC(=O)CCCCCCC)[C@@](C)(OC(C)=O)C[C@H](OC(=O)CCC)[C@@]1(O)[C@H]2OC(=O)[C@@]1(C)O` [THAPSIGARGIN] was tested, and the IC50 (C-33-A) was 0.00977 µM, the IC50 (OVCAR-5) was under 0.002 µM and the IC50 (J82) was 0.00791 µM. For the same compound, the IC50 (SK-MM-2) was 0.0456 µM, the IC50 (NCI-H1437) was 0.00247 µM and the IC50 (PC-14) was 0.00801 µM. It also gave an IC50 (U-251) of under 0.002 µM, an IC50 (UACC-812) of over 0.512 µM and an IC50 (MDA-MB-157) of over 0.512 µM. For the same compound, the IC50 (KMS-12-PE) was 0.297 µM, the IC50 (CAL-39) was under 0.002 µM and the IC50 (EHEB) was 0.0941 µM. The IC50 (HCC1937) was 0.000927 µM, the IC50 (NCI-H345) was 0.037 µM and the IC50 (NCI-N87) was over 0.512 µM. It also gave an IC50 (NCI-H522) of 0.00543 µM, an IC50 (HSC-3) of 0.0113 µM and an IC50 (A-427) of 0.00212 µM. For the same compound, the IC50 (HSC-2) was 0.00299 µM, the IC50 (SN12C) was 0.0166 µM and the IC50 (NCI-H1623) was over 0.512 µM. For the same compound, the IC50 (CMK) was 0.0333 µM, the IC50 (T47D) was over 0.512 µM and the IC50 (SNU-C1) was over 0.512 µM. It also gave an IC50 (A2780) of under 0.002 µM, an IC50 (NCI-H727) of 0.00836 µM and an IC50 (NCI-H1563) of 0.199 µM. It also gave an IC50 (COLO-679) of under 0.002 µM, an IC50 (HCC1395) of 0.00315 µM and an IC50 (NB12) of 0.0132 µM. The IC50 (Daoy) was 0.00534 µM, the IC50 (BXPC-3) was 0.00653 µM and the IC50 (OVCAR-3) was under 0.002 µM. The IC50 (SIMA) was 0.0384 µM, the IC50 (BHY) was 0.00226 µM and the IC50 (G-361) was 0.0107 µM. It also gave an IC50 (HT-1080) of under 0.002 µM, an IC50 (LoVo) of 0.0104 µM and an IC50 (HCC1599) of 0.194 µM. It also gave an IC50 (SR) of over 0.512 µM, an IC50 (CWR22R) of 0.00117 µM and an IC50 (MDA-MB-231) of 0.000557 µM. The IC50 (SW1990) was under 0.002 µM, the IC50 (NCI-H441) was 0.0126 µM and the IC50 (NCI-H1573) was 0.00162 µM. The IC50 (NCI-H1694) was 0.0728 µM, the IC50 (NUGC-3) was under 0.002 µM and the IC50 (LOUCY) was 0.0299 µM. It also gave an IC50 (MeWo) of over 0.512 µM, an IC50 (LC4-1) of 0.0423 µM and an IC50 (OAW-42) of 0.027 µM. The IC50 (EVSA-T) was 0.122 µM, the IC50 (RL) was over 0.512 µM and the IC50 (NCI-H889) was over 0.512 µM. For the same compound, the IC50 (LCLC-103H cell line) was under 0.002 µM, the IC50 (LP-1) was 0.00408 µM and the IC50 (Ca-Ski) was 0.0322 µM. It also gave an IC50 (AU565) of 0.0012 µM, an IC50 (DK-MG) of 0.0472 µM and an IC50 (A-375) of under 0.002 µM. For the same compound, the IC50 (Raji) was 0.0384 µM, the IC50 (CHL-1) was 0.0125 µM and the IC50 (SK-MES-1) was under 0.002 µM. The IC50 (D-542MG) was 0.00693 µM.
